Test [1] has as its system clinical isolates of E. coli containing TEM or SHV enzymes. As to the kind of experiment: MIC of ampicillin with or without 30 µg/mL TEM3.2 in clinical isolates. Format: cell-based, Escherichia coli. To be noted: 30 μg/mL TEM3.2; 14 out of 16 isolates. The method, then: Determination of MIC values was performed using the broth microdilution method according to the EUCAST guideline, which was performed in 96-well polystyrene flat-bottom microtiter plates (BD Biosciences). Briefly, a single colony was inoculated into 5 mL Difco™ Mueller–Hinton Broth (BD Biosciences Ref 275730) and grown to the end-exponential growth phase in a shaking incubator at 37 °C. Cultures were subsequently diluted to a MacFarland (0.5 optical density) to reach 10^6 CFU/mL in fresh MHB medium. 50 µl of different concentrations of peptides ranging from 128 to 2 µg/mL were serially diluted to the sterile 96-well plate in MHB. 50 µL of the diluted bacteria in MHB were next pipetted into 96-well plates to reach the final volume of 100 µL. The bacteria grown with the maximum concentration of carrier and medium were considered positive and negative controls, respectively. The plates were statically incubated overnight at 37 °C to allow bacterial growth. OD was measured at 590 nm using a multipurpose ultraviolet–visible plate reader, and the absorbance of the bacterial growth was measured using an absorbance reader.

Test [2] has as its system SHV beta-lactamase in E. coli SHV-11. As to the kind of experiment: Western blot of inclusion body fraction. Format: cell-based, Escherichia coli. Particulars: 12 μM peptide in PBS, 120 min. The source says:
(§1) Fig. 5 Induction of aggregation in cells. […] A single representative image is shown. […] A single representative image is shown. C SIM and brightfield images as in A, but for E. coli ATCC strain. […] A single representative image is shown. […] A single representative blot is shown. […] The corrected P-values were 0.6091, 0.0029, 0.0027, <0.0001, and 0.9992, from left to right. […] Statistics exactly as in E, but from 3 independent experiments. The corrected P-values were 0.8753, 0.9796, 0.0001, 0.0003, and 0.0003, from left to right. Source data are provided as a Source Data file.
Overnight cultures of bacteria were centrifuged for 30 min at 4000 × g and cells were washed with physiological water (NaCl 0.9%). Bacterial cells were treated by peptide at the appropriate concentration for at least 2 h at 37 C. The bacterial pellets were washed with 10 mL buffer A (50 mM HEPES, pH 7.5, 300 mM NaCl, 5 mM β-mercaptoethanol, 1.0 mM EDTA) and centrifuged at 4 °C for 30 min at 4000 × g. […]

Test [3] relates to E. coli strain lacking TEM (ATCC 25922). As to the kind of experiment: Structured illumination microscopy, inclusion bodies in strain lacking TEM. The format is cell-based, Escherichia coli. Particulars: 12 μM, 120 min, pFTAA stain, SIM.
Source text: as §1
The bacterial cultures were washed with PBS, and the number of bacteria was adjusted to 10^8–10^9 cells/mL. […] Then, cells were treated with LCO dyes (pFTAA; Amytacker^TM680 or Amytacker^TM545: final concentration of 0.5 µM; Ebba Biotech, Sweden) for at least 90 min. The absorption, emission, and excitation spectra for each dye were measured based on the standard Ebbabiotec advice (ebbabiotech.com).
Bacteria were fixed by adding 2.5% paraformaldehyde and 0.04 % glutaraldehyde (final concentrations) to the culture media, followed by incubation at room temperature for 15 min and 30 min on ice. Bacteria were then washed in PBS and resuspended in GTE buffer (50 mM glucose, 25 mM Tris, and 10 mM EDTA, pH 8.0). Directly preceding microscopic analysis, cells were transferred to a glass slide and covered with a coverslip. […]

The next test has as its system E. coli UZ_TEM104. The test is described as follows: FACS with pFTAA (aggregation) and propidium iodide (cell death). The format is cell-based, Escherichia coli.
A further test deals with T1, TEM beta-lactamase (Escherichia coli, UniProt P62593).
T1 construct: His-tag (N); TEV cleavage site (N); made in house; host or cells: E. coli BL21 (DE3)
T1 sequence (P62593 24-286 limits assumed): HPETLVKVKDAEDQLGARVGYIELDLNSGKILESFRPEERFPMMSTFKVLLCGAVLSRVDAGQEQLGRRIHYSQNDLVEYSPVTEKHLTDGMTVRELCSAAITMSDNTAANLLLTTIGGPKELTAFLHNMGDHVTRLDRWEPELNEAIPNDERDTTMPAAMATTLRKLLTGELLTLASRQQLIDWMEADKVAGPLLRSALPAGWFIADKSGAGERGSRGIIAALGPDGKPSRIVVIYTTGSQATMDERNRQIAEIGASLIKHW
As to the kind of experiment: β-lactamase activity assay (nitrocefin). The format is biochemical. To be noted: chromogenic substrate nitrocefin, Suppl Fig. 8. The method, then: The beta-lactamase assay procedure is based on the hydrolysis of the substrate Nitrocefin, a chromogenic cephalosporin, which produces a colored product (detectable at OD = 490 nm) that is directly proportional to the quantity of beta-lactamase activity. This experiment was carried out in 96-well black polystyrene flat-bottom microtiter plates (BD Biosciences). In brief, 50 μl of different concentrations of peptides or tazobactam in PBS were added to each well, followed by 50 μl of beta-lactamase protein at a final concentration of 12 ng. The plate was incubated at 37 °C for 1 h. The control heat was heated for 1 h at 95 degrees Celsius. Each well received 5 μl of Nitrocefin at a stock concentration of 0.5 mg/mL Nitrocefin. The hydrolyzed Nitrocefin was identified by absorption at 490 nm, which is proportional to the amount of beta-lactamase activity.

Description for E. coli UZ_TEM104: Fig. 6 Uptake and inclusion body formation upon peptide treatment. Fluorescence-activated cell-sorting (FACS) (A) of E. coli strain UZ_TEM104 mixed 50–50% with the same strain after heat-inactivation. The cells were stained with pFTAA to monitor aggregation and propidium iodide (PI) to monitor cell permeabilization associated with cell death. 10^6 cells were analyzed for the plot. […] B Similar FACS analysis as in A, but with a sample of live bacteria only. […] Note: the horizontal and vertical lines correspond to the gatings used to obtain the quantifications shown in the corners of each image.
Treated bacteria were washed with PBS buffer two times. One microliter of PI (Invitrogen) was added to the bacteria and incubated for 5 min. The bacteria were counted by FACS to reach 40000 events. To correlate the activity of the peptides with cell death, the fluorescence intensity was measured in two channels using the Gallios^TM Flow Cytometer (Beckman Coulter, USA), PI: excitation 536 nm and emission 617 nm, FITC: excitation 490 nm and emission 525 nm. Heated bacteria at 90 °C for 10 min were used as PI-positive control.

Turning to Ac-RLTAFLHNRRPRLTAFLRQRR-NH2 [TEM3.2], the “clinical isolates containing TEM or SHV sensitized to Ampicillin” value in test [1] was determined as 87%. In test [2], the “SHV enzyme in inclusion body fraction, western blot (in words)” value is given as “accumulates in IBs”. In test [3], the “inclusion body formation (in words)” value is listed as “only very limited inclusion body formation”. Further, the “cells with non-lethal aggregation (pFTAA shift)” value in the test with E. coli UZ_TEM104 (50 μg/mL TEM3.2, 4 h in PBS) is recorded as greater than 99%. Further, the “shift in pFTAA and PI channels (in words)” value in the test on E. coli UZ_TEM104 (4 h, penicillin G 400 μg/mL and/or TEM3.2 50 μg/mL) is recorded as “a shift of the bacterial population only in the pFTAA channel”. The “effect on beta-lactamase enzymatic function (in words)” value on TEM beta-lactamase is “loss of function of the enzymatic function of the beta-lactamase”.
